In ChEMBL document CHEMBL1123299, “New antiarrhythmic agents. 2,2,5,5-Tetramethyl-3-pyrroline-3-carboxamides and 2,2,5,5-tetramethylpyrrolidine-3-carboxamindes” (J Med Chem, 1986):

Legend:
Rattus norvegicus [1] = species: Rattus norvegicus; assay: Relative potency with reference to quinidine; type: functional
Rattus norvegicus [2] = assay: Incidence of arrhythmias in rats after a intravenal administration at 4 mg/kg, expressed as no. of positive cases out of no. of tested cases (10); type: functional
[3] = Acute toxicity determined after intravenal administration in mice; type: organism-based; details: mouse, in vivo, iv
Rattus norvegicus [4] = assay: Effective dose against aconitine-induced arrhythmia after intravenal administration in anesthetized rats; type: functional

SMILES | Relative potency (Rattus norvegicus [1]) | No. of positive cases (Rattus norvegicus [2]) | LD50 [3] [mg/kg] | ED150 (Rattus norvegicus [4]) [mg/kg]
Cc1nc2ccccc2c(=O)n1CCCNC(=O)C1=CC(C)(C)NC1(C)C | 2.6 | 10 | – | –
CC1(C)C=C(C(=O)NCCNCc2ccccc2O)C(C)(C)N1 | 11.9 | 10 | 30 | 1
CC1(C)C=C(C(=O)NC(C(N)=O)c2ccccc2)C(C)(C)N1 (centres undefined) | – | 2 | 75 | –
CC1(C)C=C(C(=O)NCCNC(=O)C(C)(C)Oc2ccc(Cl)cc2)C(C)(C)N1 | – | 0 | 47 | –
CC1(C)C=C(C(=O)NC(c2ccccc2)c2ccccc2)C(C)(C)N1 | – | 5 | 63 | –
CC1(C)C=C(C(=O)NCCCNC(=O)C(C)(C)Oc2ccc(Cl)cc2)C(C)(C)N1 | – | 0 | 46 | –
CC1(C)C=C(C(=O)NCC(O)CNC(=O)C(C)(C)Oc2ccc(Cl)cc2)C(C)(C)N1 (centres undefined) | – | 0 | 69 | –
CC1(C)CC(C(=O)NCCCNCc2ccccc2Cl)C(C)(C)N1 (centres undefined) | 4.9 | 7 | 31 | 2.4
CC1(C)C=C(C(=O)NCCCNCc2ccc[nH]2)C(C)(C)N1 | – | 4 | 20 | –
CC1(C)C=C(C(=O)NCCNCc2ccc(Cl)cc2)C(C)(C)N1 | 2.2 | 5 | 82 | 5.4
CC(=O)Nc1ccc(CNCCCNC(=O)C2=CC(C)(C)NC2(C)C)cc1 | – | 2 | 23 | –
CC1(C)C=C(C(=O)NCC(C)(C)NCc2cccs2)C(C)(C)N1 | – | 1 | 49 | –
CC1(C)C=C(C(=O)NCCCNCc2ccccc2O)C(C)(C)N1 | 2.5 | 7 | 28 | 4.7
CC1(C)C=C(C(=O)NCCNC(=O)Cc2cccs2)C(C)(C)N1 | – | 2 | 86 | –
CC1(C)C=C(C(=O)NCCCNC(=O)C2CC=CCC2C(=O)O)C(C)(C)N1 (centres undefined) | – | 0 | 344 | –
CC1(C)C=C(C(=O)NCCCNCc2ccncc2)C(C)(C)N1 | – | 0 | 94 | –
CC1(C)C=C(C(=O)NCCCN2C(=O)C3CC=CCC3C2=O)C(C)(C)N1 (centres undefined) | – | 2 | – | –
Cc1nc2ccccc2c(=O)n1CCNC(=O)C1=CC(C)(C)NC1(C)C | – | 4 | – | –
C/C=C/c1ccc(OCC(=O)NCCNC(=O)C2=CC(C)(C)NC2(C)C)c(OC)c1 | 2.9 | 7 | 18 | –
CC1(C)C=C(C(=O)NCCNC(=O)c2ccccn2)C(C)(C)N1 | – | 2 | 88 | –
COc1cccc(CNCCCNC(=O)C2=CC(C)(C)NC2(C)C)c1OCc1ccccc1 | 56.7 | 10 | 6.2 | 0.21
CC1(C)C=C(C(=O)NCCCNC(=O)CSc2ccccc2)C(C)(C)N1 | 1.7 | 7 | – | 6.9
CC1(C)C=C(C(=O)NCCCCNC(=O)c2cccs2)C(C)(C)N1 | – | 6 | 37 | –
CC1(C)C=C(C(=O)NCCNC(=O)c2cccs2)C(C)(C)N1 | – | 3 | 93 | –
COc1ccccc1CNCCCNC(=O)C1=CC(C)(C)NC1(C)C.Cl | 7.4 | 10 | 7.9 | 1.6
CC1(C)CC(C(=O)NCCCN2C(=O)c3ccccc3C2=O)C(C)(C)N1 (centres undefined) | 2.6 | 10 | – | –

SMILES | Relative potency (Rattus norvegicus [1]) | No. of positive cases (Rattus norvegicus [2]) | LD50 [3] [mg/kg] | ED150 (Rattus norvegicus [4]) [mg/kg]
CC1(C)C=C(C(=O)NCCCNC(=O)c2ccc3c(c2)OCO3)C(C)(C)N1 | – | 4 | 76 | –
CC1(C)C=C(C(=O)NCCCNC(=O)c2cccs2)C(C)(C)N1 | – | 4 | 48 | –
CC1(C)C=C(C(=O)NCCN2C(=O)C3CC=CCC3C2=O)C(C)(C)N1 (centres undefined) | – | 0 | 182 | –
CC1(C)C=C(C(=O)NCC(O)CN2C(=O)c3ccccc3C2=O)C(C)(C)N1 (centres undefined) | 3.9 | 10 | – | –
COc1cc(C(=O)NCCCNC(=O)C2=CC(C)(C)NC2(C)C)cc(OC)c1OC | 0.97 | 5 | – | –
CC1(C)C=C(C(=O)NCCCNCc2cccc(O)c2)C(C)(C)N1 | – | 4 | 17 | –
C=CCc1ccc(OCC(=O)NCCCNC(=O)C2CC(C)(C)NC2(C)C)c(OC)c1 (centres undefined) | – | 0 | 38 | –
CC1(C)C=C(C(=O)NCCCCNCc2cccs2)C(C)(C)N1 | 2.5 | 10 | – | –
CC1(C)C=C(C(=O)NCCN2C(=O)c3ccccc3C2=O)C(C)(C)N1 | 1.5 | 7 | – | –
CC(NCCNC(=O)C1=CC(C)(C)NC1(C)C)c1cccs1 (centres undefined) | – | 2 | 53 | –
CC1(C)C=C(C(=O)NCCCNCc2ccccc2)C(C)(C)N1 | 3.3 | 9 | – | –
CC1(C)C=C(C(=O)NCCNCc2cccs2)C(C)(C)N1 | – | 3 | 123 | –
CC1(C)C=C(C(=O)NCCNC(=O)C(O)c2ccccc2)C(C)(C)N1 (centres undefined) | – | 0 | 85 | –
COc1ccc(CCNC(=O)C2=CC(C)(C)NC2(C)C)cc1OC | – | 0 | 123 | –
CC1(C)C=C(C(=O)NCCCNCc2ccsc2)C(C)(C)N1 | 2.2 | 9 | – | –
CC1(C)C=C(C(=O)NCc2ccncc2)C(C)(C)N1 | – | 0 | 132 | –
CC1(C)C=C(C(=O)NCCN2C(=O)C3CCCCC3C2=O)C(C)(C)N1 (centres undefined) | – | 0 | 128 | –
CC1(C)C=C(C(=O)NCCNC(=O)C2CC=CCC2C(=O)O)C(C)(C)N1 (centres undefined) | – | 0 | 1510 | –
COc1cc(CNCCNC(=O)C2=CC(C)(C)NC2(C)C)cc(OC)c1OC | – | 2 | 56 | –
CN(Cc1ccccc1)C(=O)C1=CC(C)(C)NC1(C)C | – | 1 | 51 | –
CC1(C)C=C(C(=O)NCc2ccccc2)C(C)(C)N1 | – | 3 | 34 | –
CC1(C)CC(C(=O)NCCCNCc2ccc(C(F)(F)F)cc2)C(C)(C)N1 (centres undefined) | 4.1 | 9 | – | –
CC1(C)CC(C(=O)NCCCNCc2cccs2)C(C)(C)N1 (centres undefined) | 2.8 | 10 | – | –
CC1(C)C=C(C(=O)NCCCNC(=O)C(O)c2ccccc2)C(C)(C)N1 (centres undefined) | – | 1 | 52 | –
CC(CNC(=O)C1=CC(C)(C)NC1(C)C)NCc1cccs1 (centres undefined) | – | 4 | 68 | –
CC1(C)C=C(C(=O)NCc2ccc(Cl)cc2)C(C)(C)N1 | – | 0 | 49 | –

SMILES | Relative potency (Rattus norvegicus [1]) | No. of positive cases (Rattus norvegicus [2]) | LD50 [3] [mg/kg] | ED150 (Rattus norvegicus [4]) [mg/kg]
Cc1nc2ccccc2c(=O)n1CCCNC(=O)C1CC(C)(C)NC1(C)C (centres undefined) | – | 3 | 53 | –
CC1(C)C=C(C(=O)NCCCNC(=O)c2ccccc2C(=O)O)C(C)(C)N1 | – | 0 | – | –
CC1(C)C=C(C(=O)NCCCNC(=O)COc2ccc(Cl)cc2Cl)C(C)(C)N1 | – | 5 | 20 | –
CC1(C)C=C(C(=O)NCCCNCc2ccccn2)C(C)(C)N1 | – | 0 | 102 | –
COc1ccc(CNCCNC(=O)C2=CC(C)(C)NC2(C)C)cc1OC | – | 2 | 61 | –
CC1(C)C=C(C(=O)NCCCNCc2ccco2)C(C)(C)N1 | – | 0 | 34 | –
CC1(C)C=C(C(=O)NCCCNC(=O)Cc2ccccc2)C(C)(C)N1 | – | 6 | 54 | –
Cc1nc2ccccc2c(=O)n1CC(O)CNC(=O)C1=CC(C)(C)NC1(C)C (centres undefined) | – | 4 | 73 | –
Cc1cc(Cl)ccc1OCC(=O)NCCCNC(=O)C1=CC(C)(C)NC1(C)C | – | 3 | 30 | –
CC1(C)CC(C(=O)NCCCNCc2ccsc2)C(C)(C)N1 (centres undefined) | 0.9 | 7 | – | –
CC1(C)C=C(C(=O)NCCNC(=O)COc2ccc(Cl)cc2Cl)C(C)(C)N1 | – | 4 | 37 | –
CC1(C)C=C(C(=O)NCCCNC(=O)C2CCCCC2C(=O)O)C(C)(C)N1 (centres undefined) | – | 0 | 753 | –
COc1ccc(CNC(=O)C2=CC(C)(C)NC2(C)C)cc1 | – | 0 | 66 | –
CCc1nc2ccccc2c(=O)n1CCCNC(=O)C1CC(C)(C)NC1(C)C (centres undefined) | 4.4 | 10 | – | –
Cc1cc(Cl)ccc1OCC(=O)NCCNC(=O)C1=CC(C)(C)NC1(C)C | – | 2 | 36 | –
Cc1cccc(C)c1NC(=O)C(C)NCCNC(=O)C1=CC(C)(C)NC1(C)C (centres undefined) | – | 4 | 39 | –
CC1(C)C=C(C(=O)NCCCNC(=O)Cc2cccs2)C(C)(C)N1 | 3.8 | 8 | – | –
CCc1nc2ccccc2c(=O)n1CCNC(=O)C1=CC(C)(C)NC1(C)C | 1.1 | 10 | – | –
CC1(C)C=C(C(=O)NCCNC(=O)C2CCCCC2C(=O)O)C(C)(C)N1 (centres undefined) | – | 0 | 1130 | –
CC1(C)C=C(C(=O)NCCNC(=O)c2ccc3c(c2)OCO3)C(C)(C)N1 | – | 2 | 95 | –
CC1(C)C=C(C(=O)NCCCN2C(=O)C3CCCCC3C2=O)C(C)(C)N1 (centres undefined) | – | 0 | 106 | –
CC(=O)Nc1ccc(CNCCNC(=O)C2=CC(C)(C)NC2(C)C)cc1 | – | 2 | 25 | –
CC1(C)C=C(C(=O)NCCNC(=O)c2ccccc2C(=O)O)C(C)(C)N1 | – | 0 | 357 | –
C/C=C/c1ccc(OC(C)C(=O)NCCCNC(=O)C2=CC(C)(C)NC2(C)C)c(OC)c1 (centres undefined) | 4.4 | 7 | 14 | –
